Here are results for 11 molecules from ChEMBL document CHEMBL1201862, “PubChem BioAssay data set” (2004).

SMILES strings stand for the structures.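 Method: 48-hour compound exposure of cells in 96-well plates, five concentrations, linear interpolation of endpoints. GI50 marks 50% less growth.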 Activity calls are given as the source filed them. Cut-off read from the data, not from the text of the source: active = GI50 up to about 1.1 µM and inactive = higher.

Among the test systems are ACHN; BT-549; COLO 205; HCT-15; HOP-62; IGROV-1; MDA-MB-231; MDA-N; NCI-H522; OVCAR-3; OVCAR-8; SF-539; SK-MEL-28; SK-MEL-5; SK-OV-3; SNB-75; U-251; UACC-257; NCI-H226; RXF 393.
Common to all, as to test: NCI anticancer screen, dose series, 48 h

Regarding `O=C(CC(O)(C(F)(F)F)C(F)(F)F)c1cccs1`, the GI50 in the assay with ACHN was > 10 µM (inactive); in the assay with BT-549 it was > 10 µM (inactive); in the assay on COLO 205, > 10 µM (inactive); with HCT-15, above 10 µM; with HOP-62, > 10 µM (inactive); with IGROV-1, > 10 µM (inactive). Also, the GI50 with MDA-MB-231, in the assay on MDA-N, with NCI-H522, with OVCAR-3, in the assay on OVCAR-8 and with SF-539 was > 10 µM (inactive) in each case. Besides, the GI50 with SK-MEL-28, in the assay with SK-MEL-5, in the assay on SK-OV-3, in the assay with SNB-75, with U-251 and with UACC-257 was > 10 µM (inactive) each time.

Take `COc1c2occc2cc2ccc(=O)oc12` [METHOXSALEN]: the GI50 in the assay on ACHN is > 100 µM (inactive); in the assay with BT-549, > 100 µM (inactive); in the assay on COLO 205 it was > 100 µM (inactive); with HCT-15, above 100 µM; with HOP-62, > 100 µM (inactive); in the assay with MDA-MB-231, > 100 µM (inactive). Also, the GI50 in the assay with MDA-N, with OVCAR-3, in the assay on SF-539, in the assay on SK-MEL-28, with SK-MEL-5 and in the assay on SK-OV-3 was > 100 µM (inactive) throughout. Besides, the GI50 in the assay on U-251 and with UACC-257 was > 100 µM (inactive) each time.

`CC(=O)CC(O)(C(F)(F)Cl)C(F)(F)Cl`: the GI50 in the assay on ACHN was > 10 µM (inactive); in the assay with COLO 205 it was > 10 µM (inactive); with HCT-15, above 10 µM; with HOP-62 it was > 10 µM (inactive); in the assay on IGROV-1, > 10 µM (inactive); in the assay with MDA-MB-231 it was > 10 µM (inactive). Besides, the GI50 in the assay on MDA-N, in the assay with NCI-H226, in the assay on NCI-H522, with OVCAR-3, with OVCAR-8 and in the assay with RXF 393 was > 10 µM (inactive) each time. In addition, the GI50 in the assay with SF-539, with SK-MEL-28, with SK-MEL-5, in the assay on SK-OV-3, in the assay on SNB-75 and in the assay on U-251 was > 10 µM (inactive) each time. In the assay on UACC-257, the GI50 was > 10 µM (inactive).

For the molecule `CCN(CC)C(=S)N/N=C(/C)c1cccc(/C(C)=N\NC(=S)N(CC)CC)n1`, the GI50 in the assay on ACHN was 0.678 µM (active); in the assay with COLO 205, 1.58 µM (inactive); in the assay on HCT-15, 2.3 µM; in the assay with HOP-62 it was 1.41 µM (inactive); in the assay with IGROV-1, 1.91 µM (inactive); in the assay with MDA-MB-231 it was 1.76 µM (inactive). Besides, the GI50 with MDA-N is 6.37 µM (inactive); with NCI-H226, 1.56 µM (inactive); in the assay with NCI-H522, 3.23 µM (inactive); with OVCAR-3 it was 1.35 µM (inactive); in the assay on OVCAR-8 it was 1.44 µM (inactive); in the assay on RXF 393, 2.3 µM (inactive). Further, the GI50 is 1.37 µM (inactive) in the assay with SF-539; 1.21 µM (inactive) with SK-MEL-28; 2.13 µM (inactive) in the assay with SK-MEL-5; 1.96 µM (inactive) with SK-OV-3; 3.21 µM (inactive) with SNB-75; 2.34 µM (inactive) in the assay on U-251. Also, the GI50 in the assay on UACC-257 was 2.2 µM (inactive).

Take `COc1ccc(N[S+]([O-])c2ccc(OC)cc2)cc1` (stereo not given): the GI50 in the assay with ACHN was 95.1 µM (inactive); in the assay on BT-549, 14.8 µM (inactive); in the assay with COLO 205, 72.1 µM (inactive); in the assay on HCT-15 it was 11.2 µM; in the assay on HOP-62 it was 61.8 µM (inactive); with IGROV-1, 5.53 µM (inactive). Besides, the GI50 with MDA-MB-231 is 37.9 µM (inactive); with MDA-N it was 41.3 µM (inactive); with NCI-H226 it was 55.5 µM (inactive); with NCI-H522, 21.5 µM (inactive); with OVCAR-3, > 100 µM (inactive); in the assay with OVCAR-8, 82.2 µM (inactive). The GI50 was 14.6 µM (inactive) with SF-539; > 100 µM (inactive) in the assay on SK-MEL-28; 18.8 µM (inactive) in the assay with SK-MEL-5; 12.5 µM (inactive) in the assay with U-251; 69 µM (inactive) in the assay with UACC-257.

Turning to `O=C1c2ccccc2-c2nc(-c3cccnc3)cc3c2c1nc1ccccc13`, the GI50 in the assay with ACHN is > 100 µM (inactive); with BT-549, > 100 µM (inactive); in the assay with COLO 205, > 100 µM (inactive); with HCT-15 it was above 100 µM; with HOP-62, > 100 µM (inactive); with IGROV-1 it was 25.5 µM (inactive). The GI50 in the assay with MDA-MB-231 was > 100 µM (inactive); in the assay on NCI-H226, > 100 µM (inactive); with NCI-H522, > 100 µM (inactive); in the assay with OVCAR-3, 11.6 µM (inactive); in the assay on OVCAR-8, > 100 µM (inactive); in the assay on SF-539, > 100 µM (inactive). The GI50 with SK-MEL-28, with SK-OV-3, with SNB-75, in the assay with U-251 and in the assay with UACC-257 was > 100 µM (inactive) throughout.

In the case of `COC(=O)C1=C(C)NC(C)=C(C(=O)OCCCN2CCC(c3ccccc3)(c3ccccc3)CC2)[C@H]1c1cccc([N+](=O)[O-])c1` [NIGULDIPINE], the GI50 is 1.66 µM (inactive) in the assay on ACHN; 1.57 µM (inactive) with COLO 205; 1.94 µM in the assay with HCT-15; 4.6 µM (inactive) in the assay on HOP-62; 1.8 µM (inactive) in the assay with IGROV-1; 1.3 µM (inactive) in the assay on MDA-MB-231. In addition, the GI50 with MDA-N is 1.97 µM (inactive); in the assay on NCI-H226 it was 3.25 µM (inactive); in the assay on NCI-H522 it was 2.49 µM (inactive); in the assay on OVCAR-3 it was 1.46 µM (inactive); with OVCAR-8, 1.95 µM (inactive); in the assay on RXF 393 it was 1.86 µM (inactive). Further, the GI50 in the assay on SF-539 is 1.8 µM (inactive); in the assay with SK-MEL-28, 1.88 µM (inactive); with SK-MEL-5, 1.75 µM (inactive); in the assay with SK-OV-3, 5.24 µM (inactive); in the assay on SNB-75 it was 1.37 µM (inactive); in the assay on U-251, 1.8 µM (inactive). In addition, in the assay with UACC-257, the GI50 was 1.66 µM (inactive).

For `Cc1cc(Nc2ccc(NS(C)(=O)=O)cc2)c2c(ccc3[nH]ccc32)n1`, the GI50 in the assay on ACHN was 22.8 µM (inactive); with BT-549, 21.9 µM (inactive); with COLO 205 it was 14.3 µM (inactive); in the assay with HCT-15, above 100 µM; in the assay with HOP-62 it was 19.4 µM (inactive); with IGROV-1, 28.6 µM (inactive). Besides, the GI50 in the assay on MDA-MB-231 is 16.4 µM (inactive); with MDA-N, 17.6 µM (inactive); in the assay on NCI-H226 it was 19.5 µM (inactive); in the assay on NCI-H522, 9.35 µM (inactive); in the assay on OVCAR-3, 13.1 µM (inactive); in the assay on OVCAR-8, 22.9 µM (inactive). The GI50 in the assay with SK-MEL-28 was 17.7 µM (inactive); in the assay on SK-MEL-5 it was 15.1 µM (inactive); with U-251 it was 15.1 µM (inactive); in the assay on UACC-257 it was 17.3 µM (inactive).

As to `C=C(CCC(C)C1CCC2C3=C(C(=O)CC21C)C1(C)CCC(=O)[C@@H](C)C1CC3=O)C(C)C(=O)O` (stereo not given in full), the GI50 is 29.9 µM (inactive) in the assay with ACHN; 47.3 µM (inactive) in the assay with BT-549; 45.1 µM (inactive) in the assay on COLO 205; 77.8 µM in the assay on HCT-15; 35.3 µM (inactive) with HOP-62; 42.6 µM (inactive) in the assay with IGROV-1. Moreover, the GI50 with MDA-MB-231 is 39.3 µM (inactive); in the assay with NCI-H226, > 100 µM (inactive); in the assay with NCI-H522, 45.8 µM (inactive); with OVCAR-3 it was 60.1 µM (inactive); in the assay on OVCAR-8, 61 µM (inactive); in the assay with RXF 393, 18 µM (inactive). For the same molecule, the GI50 in the assay on SF-539 was > 100 µM (inactive); in the assay with SK-MEL-28, > 100 µM (inactive); in the assay with SK-MEL-5, 31 µM (inactive); with SK-OV-3, 0.51 µM (active); in the assay with SNB-75 it was 42.4 µM (inactive); in the assay on U-251, 56.5 µM (inactive). Also, the GI50 in the assay on UACC-257 was 46.9 µM (inactive).

As to `O=c1ccc(-c2ccc(-n3ccnc3)cc2)nn1CCO`, the GI50 with ACHN was > 100 µM (inactive); with BT-549 it was > 100 µM (inactive); with COLO 205, > 100 µM (inactive); in the assay on HCT-15 it was above 100 µM; in the assay with HOP-62 it was > 100 µM (inactive); in the assay on IGROV-1, > 100 µM (inactive). Further, the GI50 with MDA-N, in the assay with NCI-H522, in the assay on OVCAR-3, in the assay on OVCAR-8, in the assay with RXF 393 and with SF-539 was > 100 µM (inactive) in each case. In addition, the GI50 with SK-MEL-28 was > 100 µM (inactive); in the assay on SK-MEL-5, > 100 µM (inactive); with SK-OV-3, > 100 µM (inactive); with SNB-75 it was 39.9 µM (inactive); with U-251 it was > 100 µM (inactive); in the assay with UACC-257 it was > 100 µM (inactive).

On to `CCOc1nc(N)nc(C)c1/N=N/c1ccc(Cl)cc1`, for which the GI50 with ACHN is > 100 µM (inactive); with BT-549, 59 µM (inactive); in the assay with COLO 205, > 100 µM (inactive); with HCT-15 it was above 100 µM; in the assay on HOP-62 it was > 100 µM (inactive); with IGROV-1, > 100 µM (inactive). For the same molecule, the GI50 with MDA-MB-231 is > 100 µM (inactive); in the assay with NCI-H226 it was 20.6 µM (inactive); in the assay on NCI-H522, 69.7 µM (inactive); with OVCAR-3 it was > 100 µM (inactive); with OVCAR-8 it was > 100 µM (inactive); with RXF 393, > 100 µM (inactive). Besides, the GI50 with SF-539 is 36.9 µM (inactive); in the assay on SK-MEL-28 it was > 100 µM (inactive); with SK-MEL-5 it was 0.649 µM (active); in the assay with SK-OV-3, > 100 µM (inactive); in the assay on SNB-75 it was > 100 µM (inactive); in the assay with U-251, > 100 µM (inactive). Also, the GI50 in the assay with UACC-257 was > 100 µM (inactive).
